Laboratory results: patent US20250002785A1, “MULTIPURPOSE IMIDAZOLINE-BASED PROCESS CHEMICALS” (Baker Hughes Oilfield Operations LLC, priority 2023, published 2025)

Assay: hydrogen sulfide scavenging in sour Isopar M solvent
Conditions: sour Isopar M solvent with 4000 ppm H2S, scavenger dose per sample in the 5th table
Description: Further testing was performed to compare the hydrogen sulfide scavenging properties of an exemplary embodiment of the multipurpose process chemical compared to conventional scavengers.
A sour Isopar™ M solvent was obtained with 4000 ppm hydrogen sulfide (H2S). Samples were obtained by mixing the following with the sour Isopar™ M solvent:
The control and Samples V-A through V-F were stirred for twenty-four (24) hours at ambient temperature (˜71° F.). […] The table below summarizes the hydrogen sulfide scavenging observed for each sample: […]

SMILES: CC1COC(=O)O1 (centres unmarked) [Sample V-C, propylene carbonate]
- % H2S reduction (24 hours, ambient temperature): 0%
- H2S at 24 hours (ppm) (stirred 24 hours at ambient temperature (~71 F), control 3,500 ppm): 3,500 ppm
